Laboratory results from patent publication US8067445B2, “N,N-disubstituted aminoalkylbiphenyl antagonists of prostaglandin D2 receptors” (Panmira Pharmaceuticals, LLC, priority 2008, dated 2011).
pIC50: −log10 of the molar value.

Target: T1, human DP2 receptor (Homo sapiens, UniProt Q9Y5Y4)
T1 construct: expressed in transfected cells
T1 sequence (Q9Y5Y4 1-395): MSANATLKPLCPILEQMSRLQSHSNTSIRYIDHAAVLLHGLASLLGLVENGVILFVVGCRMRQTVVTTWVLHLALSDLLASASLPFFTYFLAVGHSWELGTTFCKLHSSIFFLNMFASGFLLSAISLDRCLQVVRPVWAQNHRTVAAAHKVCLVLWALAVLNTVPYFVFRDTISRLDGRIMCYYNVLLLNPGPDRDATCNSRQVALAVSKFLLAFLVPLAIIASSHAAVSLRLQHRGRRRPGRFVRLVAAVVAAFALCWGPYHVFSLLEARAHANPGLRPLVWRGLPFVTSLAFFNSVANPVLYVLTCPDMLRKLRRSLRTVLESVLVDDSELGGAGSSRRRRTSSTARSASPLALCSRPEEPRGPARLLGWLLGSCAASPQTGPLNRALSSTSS
Experiment: DP2/CRTH2 radioligand binding assay ([3H]PGD2)
Conditions: [3H]PGD2 binding, membranes of HEK293 cells expressing human DP2; read-out: hDP2
Method: The ability of a compound to bind to the human DP2 receptor is assessed via a radioligand binding assay using [^3H]PGD2. HEK293 cells stably expressing recombinant human DP2 are resuspended in 10 mM Hepes, 7.4 containing 1 mM DTT, lysed and centrifuged at 75,000×g to pellet the membranes. The membranes are resuspended in 10 mM Hepes, 7.4 containing 1 mM DTT and 10% glycerol to approximately 5 mg protein/ml. Membranes (2-10 μg protein/well) are incubated in 96-well plates with 1 nM [^3H]PGD2 and test compound in Assay Buffer (50 mM Hepes, 10 mM MnCl2, 1 mM EDTA, plus or minus 0.2% human serum albumin, pH 7.4) for 60 minutes at room temperature. The reactions are terminated by rapid filtration through Whatman GF/C glass fibre filter plates. The filter plates were pre-soaked in 0.33% polyethylenimine for 30 minutes at room temperature then washed in Wash Buffer (50 mM Hepes, 0.5 M NaCl pH 7.4) prior to harvesting. After harvesting, the filter plates are washed 3 times with 1 ml cold Wash Buffer then dried. Scintillant is then added to the plates and the radioactivity retained on the filters is determined on a Packard TopCount (Perkin Elmer). Specific binding is determined as total radioactive binding minus non-specific binding in the presence of 10 μM PGD2. IC50s were determined using GraphPad prism analysis of drug titration curves.

With `CCN(Cc1cc(C(F)(F)F)ccc1-c1cc(CC(=O)O)ccc1OC)C(=O)c1ccccc1` [Compound 1-80, {2′-[(Benzoyl-ethyl-amino)-methyl]-6-methoxy-4′-trifluoromethyl-biphenyl-3-yl}-acetic acid] the pIC50 was over 6.52.

`CCN(Cc1cc(C(F)(F)F)ccc1-c1cc(Cl)cc(CC(=O)O)c1)C(=O)OCc1ccc(Cl)cc1` [Compound 1-188, (5-Chloro-2′-{[(4-chloro-benzyloxycarbonyl)-ethyl-amino]-methyl}-4′-trifluoromethyl-biphenyl-3-yl)-acetic acid] showed a pIC50 of over 6.52.

`CCN(Cc1cc(C(F)(F)F)ccc1-c1cc(CC(=O)O)cc(C(F)(F)F)c1)C(=O)OCc1ccc(Cl)cc1` [Compound 1-189, (2′-{[(4-Chloro-benzyloxycarbonyl)-ethyl-amino]-methyl}-5,4′-bis-trifluoromethyl-biphenyl-3-yl)-acetic acid] gave a pIC50 of over 6.52.

Molecule `CCN(Cc1cc(C(F)(F)F)ccc1-c1cc(Cl)cc(CC(=O)O)c1)C(=O)OCc1ccc(F)cc1` [Compound 1-190, (5-Chloro-2′-{[ethyl-(4-fluoro-benzyloxycarbonyl)-amino]-methyl}-4′-trifluoromethyl-biphenyl-3-yl)-acetic acid] has a pIC50 of over 6.52.

`CCN(Cc1cc(C(F)(F)F)ccc1-c1cc(CC(=O)O)cc(C(F)(F)F)c1)C(=O)OCc1ccc(F)cc1` [Compound 1-191, (2′-{[Ethyl-(4-fluoro-benzyloxycarbonyl)-amino]-methyl}-5,4′-bis-trifluoromethyl-biphenyl-3-yl)-acetic acid] showed a pIC50 of over 6.52.

Molecule `CCN(Cc1cc(C(F)(F)F)ccc1-c1cc(Cl)cc(CC(=O)O)c1)C(=O)NCc1ccc(Cl)cc1` [Compound 1-192, {5-Chloro-2′-[3-(4-chloro-benzyl)-1-ethyl-ureidomethyl]-4′-trifluoromethyl-biphenyl-3-yl}-acetic acid] has a pIC50 of over 6.52.

`CCN(Cc1cc(C(F)(F)F)ccc1-c1cc(CC(=O)O)cc(C(F)(F)F)c1)C(=O)NCc1ccc(Cl)cc1` [Compound 1-193, {2′-[3-(4-Chloro-benzyl)-1-ethyl-ureidomethyl]-5,4′-bis-trifluoromethyl-biphenyl-3-yl}-acetic acid] showed a pIC50 of over 6.52.

In the case of `CCN(Cc1ccc(OC)cc1-c1cc(CC(=O)O)ccc1OC)C(=O)OCc1ccc(F)cc1` [Compound 1-194, (2′-{[Ethyl-(4-fluoro-benzyloxycarbonyl)-amino]-methyl}-6,5′-dimethoxy-biphenyl-3-yl)-acetic acid], the pIC50 was over 6.52.

For `CCN(Cc1ccc(OC)cc1-c1cc(CC(=O)O)ccc1OC)C(=O)OCc1ccc(Cl)cc1` [Compound 1-195, (2′-{[(4-Chloro-benzyloxycarbonyl)-ethyl-amino]-methyl}-6,5′-dimethoxy-biphenyl-3-yl)-acetic acid], the pIC50 was over 6.52.

Molecule `CCN(Cc1ccc(OC)cc1-c1cc(CC(=O)O)ccc1OC)C(=O)C1CC1` [Compound 1-196, {2′-[(Cyclopropanecarbonyl-ethyl-amino)-methyl]-6,5′-dimethoxy-biphenyl-3-yl}-acetic acid] has a pIC50 of over 6.52.

In the case of `CCN(Cc1ccc(OC)cc1-c1cc(CC(=O)O)ccc1OC)C(=O)NCc1ccccc1` [Compound 1-197, [2′-(3-Benzyl-1-ethyl-ureidomethyl)-6,5′-dimethoxy-biphenyl-3-yl]-acetic acid], the pIC50 was over 6.52.

With `CCN(Cc1cc(C(F)(F)F)ccc1-c1cc(CC(=O)O)ccc1OC)C(=O)NCc1cccnc1` [Compound 1-198] the pIC50 was over 6.52.

For `CCN(Cc1cc(C(F)(F)F)ccc1-c1cc(CC(=O)O)ccc1OC)C(=O)NCc1ccncc1` [Compound 1-199, [2′-(1-Ethyl-3-pyridin-4-ylmethyl-ureidomethyl)-6-methoxy-4′-trifluoromethyl-biphenyl-3-yl]-acetic acid], the pIC50 was over 6.52.

With `CCN(Cc1cc(C(F)(F)F)ccc1-c1cc(CC(=O)O)ccc1OC)C(=O)NCc1ccc(Cl)nc1` [Compound 1-200, {2′-[3-(6-Chloro-pyridin-3-ylmethyl)-1-ethyl-ureidomethyl]-6-methoxy-4′-trifluoromethyl-biphenyl-3-yl}-acetic acid] the pIC50 was over 6.52.

`CCN(Cc1cc(C(F)(F)F)ccc1-c1cc(Cl)cc(CC(=O)O)c1)C(=O)NC` [Compound 1-201, [5-Chloro-2′-(1-ethyl-3-methyl-ureidomethyl)-4′-trifluoromethyl-biphenyl-3-yl]-acetic acid] was tested, and the pIC50 was over 6.52.

`CCN(Cc1cc(C(F)(F)F)ccc1-c1cc(CC(=O)O)cc(C(F)(F)F)c1)C(=O)NC` [Compound 1-202, [2′-(1-Ethyl-3-methyl-ureidomethyl)-5,4′-bis-trifluoromethyl-biphenyl-3-yl]-acetic acid] was tested, and the pIC50 was over 6.52.

For `CCN(Cc1cc(C(F)(F)F)ccc1-c1cc(Cl)cc(CC(=O)O)c1)C(=O)c1ccccc1` [Compound 1-203, {2′-[(Benzoyl-ethyl-amino)-methyl]-5-chloro-4′-trifluoromethyl-biphenyl-3-yl}-acetic acid], the pIC50 was over 6.52.

With `CCN(Cc1cc(C(F)(F)F)ccc1-c1cc(CC(=O)O)cc(C(F)(F)F)c1)C(=O)c1ccccc1` [Compound 1-204, {2′-[(Benzoyl-ethyl-amino)-methyl]-5,4′-bis-trifluoromethyl-biphenyl-3-yl}-acetic acid] the pIC50 was over 6.52.

Work on `CCN(Cc1cc(C(F)(F)F)ccc1-c1cc(CC(=O)O)ccc1OC)C(=O)Cc1ccccc1` [Compound 1-207, {2′-[(Ethyl-phenylacetyl-amino)-methyl]-6-methoxy-4′-trifluoromethyl-biphenyl-3-yl}-acetic acid] yielded a pIC50 of over 6.52.

With `CCN(Cc1cc(C(F)(F)F)ccc1-c1cc(CC(=O)O)ccc1OC)C(=O)CCc1ccccc1` [Compound 1-208, (2′-{[Ethyl-(3-phenyl-propionyl)-amino]-methyl}-6-methoxy-4′-trifluoromethyl-biphenyl-3-yl)-acetic acid] the pIC50 was over 6.52.

`CCN(Cc1cc(C(F)(F)F)ccc1-c1cc(CC(=O)O)ccc1OC)C(=O)C1(O)CC1` [Compound 1-209, (2′-{[Ethyl-(1-hydroxy-cyclopropanecarbonyl)-amino]-methyl}-6-methoxy-4′-trifluoromethyl-biphenyl-3-yl)-acetic acid] was tested, and the pIC50 was over 6.52.

`CCN(Cc1cc(C(F)(F)F)ccc1-c1cc(CC(=O)O)ccc1OC)C(N)=O` [Compound 1-210, {2′-[(1-Ethyl-ureido)-methyl]-6-methoxy-4′-trifluoromethyl-biphenyl-3-yl}-acetic acid] showed a pIC50 of over 6.52.

`CCN(Cc1cc(C(F)(F)F)ccc1-c1cc(Cl)cc(C(C)C(=O)O)c1)C(C)=O` (stereo not drawn) [Compound 1-211, 2-{2′-[(Acetyl-ethyl-amino)-methyl]-5-chloro-4′-trifluoromethyl-biphenyl-3-yl}-propionic acid] was tested, and the pIC50 was over 6.52.

`CCN(Cc1cc(C(F)(F)F)ccc1-c1cc(Cl)cc(C(C)C(=O)O)c1)C(=O)C1CC1` (stereo not drawn) [Compound 1-212, 2-{5-Chloro-2′-[(cyclopropanecarbonyl-ethyl-amino)-methyl]-4′-trifluoromethyl-biphenyl-3-yl}-propionic acid] gave a pIC50 of over 6.52.

With `CCN(Cc1cc(C(F)(F)F)ccc1-c1cc(C(C)C(=O)O)cc(C(F)(F)F)c1)C(C)=O` (stereo not drawn) [Compound 1-213, 2-{2′-[(Acetyl-ethyl-amino)-methyl]-5,4′-bis-trifluoromethyl-biphenyl-3-yl}-propionic acid] the pIC50 was over 6.52.

For `CCN(Cc1cc(C(F)(F)F)ccc1-c1cc(C(C)C(=O)O)cc(C(F)(F)F)c1)C(=O)C1CC1` (stereo not drawn) [Compound 1-214, 2-{2′-[(Cyclopropanecarbonyl-ethyl-amino)-methyl]-5,4′-bis-trifluoromethyl-biphenyl-3-yl}-propionic acid], the pIC50 was over 6.52.

With `CCN(Cc1cc(C(F)(F)F)ccc1-c1cc(C(C)C(=O)O)ccc1OC)C(=O)C1CC1` (stereo not drawn) [Compound 1-217, 2-{2′-[(Cyclopropanecarbonyl-ethyl-amino)-methyl]-6-methoxy-4′-trifluoromethyl-biphenyl-3-yl}-propionic acid] the pIC50 was over 6.52.

With `CCN(Cc1ccc(OC)cc1-c1cc(Cl)cc(CC(=O)O)c1)C(=O)C1CC1` [Compound 1-218, {5-Chloro-2′-[(cyclopropanecarbonyl-ethyl-amino)-methyl]-5′-methoxy-biphenyl-3-yl}-acetic acid] the pIC50 was over 6.52.

Work on `CCN(Cc1ccc(OC)cc1-c1cc(Cl)cc(CC(=O)O)c1)C(=O)NCc1ccccc1` [Compound 1-219, [2′-(3-Benzyl-1-ethyl-ureidomethyl)-5-chloro-5′-methoxy-biphenyl-3-yl]-acetic acid] yielded a pIC50 of over 6.52.

Work on `CCN(Cc1ccc(OC)cc1-c1cc(Cl)cc(CC(=O)O)c1)C(=O)COc1ccc(Cl)cc1` [Compound 1-221, [5-Chloro-2′-({[2-(4-chloro-phenoxy)-acetyl]-ethyl-amino}-methyl)-5′-methoxy-biphenyl-3-yl]-acetic acid] yielded a pIC50 of over 6.52.
